Results from ChEMBL document CHEMBL1201862, “PubChem BioAssay data set” (2004).
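Dose response: 5 concentrations. Exposure: 48 h. Format: 96-well plates. Endpoint: linear interpolation; highest concentration if not reached. Abbreviation: GI50, concentration required for 50% inhibition of growth.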 The source made the active and inactive calls. No stated cut-off is given here; in the data, active = GI50 up to about 1.1 µM and inactive = higher. *1 amine or outer side, *2 acyl side, *3 side chain or, on linkers, in order; H or OH if unused. Where a SMILES comes first, the peptide text is derived from it. [ ]: non-standard residue; d: D form. The star is where a group is joined. ξ: configuration not given here. X26 = O=C([C@H]1CCC[C@H]1N[*:1])[*:2]; ξW = NC(Cc1c[nH]c2ccccc12)C(=O)O; ξF = NC(Cc1ccccc1)C(=O)O; Boc = CC(C)(C)OC(=O)*; ξK = NCCCCC(N)C(=O)O; ξT = CC(O)C(N)C(=O)O; tBu = CC(C)(C)*

Experiments:
Experiment in all cases: growth of human tumour cells (NCI), 48 h
HOP-62 = test system: HOP-62
HCT-116 = test system: HCT-116
MDA-MB-231 = test system: MDA-MB-231
SR = test system: SR
A498 = test system: A498
TK-10 = test system: TK-10
HCC 2998 = test system: HCC 2998
SF-295 = test system: SF-295
HCT-15 = test system: HCT-15
MDA-N = test system: MDA-N
MDA-MB-435 = test system: MDA-MB-435
UACC-257 = test system: UACC-257
NCI-H460 = test system: NCI-H460
LOX IMVI = test system: LOX IMVI
CAKI-1 = test system: CAKI-1
EKVX = test system: EKVX
IGROV-1 = test system: IGROV-1
HOP-92 = test system: HOP-92
SNB-19 = test system: SNB-19
SK-MEL-5 = test system: SK-MEL-5
Malme-3M = test system: Malme-3M
BT-549 = test system: BT-549
MOLT-4 = test system: MOLT-4
PC-3 = test system: PC-3
786-0 = test system: 786-0
UACC-62 = test system: UACC-62
COLO 205 = test system: COLO 205
HT-29 = test system: HT-29
Hs-578T = test system: Hs-578T
MCF7 = test system: MCF7
OVCAR-4 = test system: OVCAR-4
M14 = test system: M14
NCI-H522 = test system: NCI-H522
U-251 = test system: U-251
SK-MEL-28 = test system: SK-MEL-28
SF-268 = test system: SF-268
T47D = test system: T47D
RXF 393 = test system: RXF 393
RPMI-8226 = test system: RPMI-8226
HL-60 = test system: HL-60
SW-620 = test system: SW-620
K562 = test system: K562
NCI-H226 = test system: NCI-H226
A549 = test system: A549
DU-145 = test system: DU-145
OVCAR-3 = test system: OVCAR-3
KM12 = test system: KM12
OVCAR-5 = test system: OVCAR-5
SN12C = test system: SN12C
SF-539 = test system: SF-539
NCI-H23 = test system: NCI-H23
OVCAR-8 = test system: OVCAR-8
SK-OV-3 = test system: SK-OV-3
CCRF-CEM = test system: CCRF-CEM
SK-MEL-2 = test system: SK-MEL-2
SNB-75 = test system: SNB-75
NCI/ADR-RES = test system: NCI/ADR-RES
UO-31 = test system: UO-31
ACHN = test system: ACHN

In the case of `COc1ccc(-c2oc3cc(OC)ccc3c(=O)c2O)cc1`, the GI50 (HOP-62) is reported as 3.7 µM (inactive), the GI50 (HCT-116) is reported as 4.15 µM (inactive) and the GI50 (MDA-MB-231) is reported as 43.4 µM (inactive). The GI50 (SR) was 3.57 µM (inactive), the GI50 (A498) was > 100 µM (inactive) and the GI50 (TK-10) was > 100 µM (inactive). For the same molecule, the GI50 (HCC 2998) was > 10 µM (inactive), the GI50 (SF-295) was 4.79 µM (inactive) and the GI50 (HCT-15) was 3.63 µM. The GI50 (MDA-N) was > 100 µM (inactive), the GI50 (MDA-MB-435) was > 27.7 µM (inactive) and the GI50 (UACC-257) was > 100 µM (inactive). For the same molecule, the GI50 (NCI-H460) was 3.37 µM (inactive), the GI50 (LOX IMVI) was 4.12 µM (inactive) and the GI50 (CAKI-1) was 2.53 µM (inactive). For the same molecule, the GI50 (EKVX) was > 100 µM (inactive), the GI50 (IGROV-1) was 4.25 µM (inactive) and the GI50 (HOP-92) was 3.42 µM (inactive). The GI50 (SNB-19) was > 100 µM (inactive), the GI50 (SK-MEL-5) was > 100 µM (inactive) and the GI50 (Malme-3M) was > 31.6 µM (inactive). For the same molecule, the GI50 (BT-549) was 0.668 µM (active), the GI50 (MOLT-4) was 2.66 µM (inactive) and the GI50 (PC-3) was > 100 µM (inactive). The GI50 (786-0) was 9.02 µM (inactive), the GI50 (UACC-62) was 5.19 µM (inactive) and the GI50 (COLO 205) was > 100 µM (inactive). For the same molecule, the GI50 (HT-29) was > 100 µM (inactive), the GI50 (Hs-578T) was 1.54 µM (inactive) and the GI50 (MCF7) was 3.43 µM (inactive). The GI50 (OVCAR-4) was 3.88 µM (inactive), the GI50 (M14) was > 25.5 µM (inactive) and the GI50 (NCI-H522) was 3.18 µM (inactive). For the same molecule, the GI50 (U-251) was 3.31 µM (inactive), the GI50 (SK-MEL-28) was > 25.4 µM (inactive) and the GI50 (SF-268) was 5.13 µM (inactive). For the same molecule, the GI50 (T47D) was 9.42 µM (inactive), the GI50 (RXF 393) was 3.15 µM (inactive) and the GI50 (RPMI-8226) was > 23.1 µM (inactive).

With `CC(OC(C)(C)C)C1NC(=O)C(CCCCNC(=O)OC(C)(C)C)NC(=O)C(Cc2c[nH]c3ccccc23)NC(=O)C(Cc2ccccc2)NC(=O)[C@H]2CCC[C@H]2NC(=O)C(Cc2ccccc2)NC1=O` (stereo not given in full) (cyclo([X26][ξF][ξW][ξK](Boc)[ξT](tBu)[ξF])) the GI50 (HL-60) was > 100 µM (inactive), the GI50 (SW-620) was > 100 µM (inactive) and the GI50 (K562) was 9.57 µM (inactive). The GI50 (HOP-62) was > 100 µM (inactive), the GI50 (HCT-116) was 7.26 µM (inactive) and the GI50 (NCI-H226) was 39.2 µM (inactive). The GI50 (MDA-MB-231) was 31.8 µM (inactive), the GI50 (SR) was 72.3 µM (inactive) and the GI50 (A549) was 73.3 µM (inactive). The GI50 (HCC 2998) was 12.2 µM (inactive), the GI50 (SF-295) was 9.79 µM (inactive) and the GI50 (DU-145) was 93.8 µM (inactive). The GI50 (HCT-15) was > 100 µM, the GI50 (OVCAR-3) was > 100 µM (inactive) and the GI50 (MDA-N) was 56.2 µM (inactive). For the same molecule, the GI50 (MDA-MB-435) was 29.9 µM (inactive), the GI50 (KM12) was > 100 µM (inactive) and the GI50 (UACC-257) was 5.41 µM (inactive). For the same molecule, the GI50 (NCI-H460) was 38.2 µM (inactive), the GI50 (OVCAR-5) was 17.9 µM (inactive) and the GI50 (SN12C) was 17.2 µM (inactive). The GI50 (LOX IMVI) was 16.1 µM (inactive), the GI50 (CAKI-1) was > 100 µM (inactive) and the GI50 (SF-539) was 75.9 µM (inactive). The GI50 (NCI-H23) was 23.8 µM (inactive), the GI50 (EKVX) was > 100 µM (inactive) and the GI50 (OVCAR-8) was 18.2 µM (inactive). The GI50 (IGROV-1) was 50.4 µM (inactive), the GI50 (HOP-92) was > 100 µM (inactive) and the GI50 (SNB-19) was 30 µM (inactive). The GI50 (SK-MEL-5) was 3.13 µM (inactive), the GI50 (Malme-3M) was > 100 µM (inactive) and the GI50 (MOLT-4) was 14.2 µM (inactive). For the same molecule, the GI50 (PC-3) was 6.37 µM (inactive), the GI50 (786-0) was > 100 µM (inactive) and the GI50 (UACC-62) was 28.5 µM (inactive). The GI50 (COLO 205) was 18.9 µM (inactive), the GI50 (SK-OV-3) was 48 µM (inactive) and the GI50 (HT-29) was 11.4 µM (inactive). For the same molecule, the GI50 (Hs-578T) was 2.67 µM (inactive), the GI50 (MCF7) was 11.6 µM (inactive) and the GI50 (CCRF-CEM) was 9.06 µM (inactive). For the same molecule, the GI50 (OVCAR-4) was > 100 µM (inactive), the GI50 (M14) was 28.3 µM (inactive) and the GI50 (SK-MEL-2) was 26.1 µM (inactive). For the same molecule, the GI50 (SNB-75) was 5.3 µM (inactive), the GI50 (NCI-H522) was 61.7 µM (inactive) and the GI50 (U-251) was 25.5 µM (inactive). The GI50 (NCI/ADR-RES) was > 100 µM (inactive), the GI50 (UO-31) was > 100 µM (inactive) and the GI50 (SK-MEL-28) was > 100 µM (inactive). The GI50 (SF-268) was > 100 µM (inactive), the GI50 (T47D) was 15.2 µM (inactive) and the GI50 (RXF 393) was > 100 µM (inactive). The GI50 (RPMI-8226) was 8.71 µM (inactive) and the GI50 (ACHN) was > 100 µM (inactive).
